Results taken from the supplement of paper PMC10307832.

Columns and labels:
Experiment in all cases: relative viability (nuclei count vs DMSO), 5 days (fraction); higher = more cells survive
NCI-H1792 = tested on: NCI-H1792
How it was run: (§1)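 Lung cancer cell lines were seeded in 1536-well plates and dosed by pin tool the next day, with either a single drug or a fixed anchor-drug dose combined with five library-drug doses (not always all listed) spaced in √10 steps. Five days later, one step fixed the cells and stained their nuclei (final 0.05% Triton X-100, 1% formaldehyde, 1 ug/ml Hoechst), and nuclei were counted on 4× images. Relative viability is the nuclei count in treated wells divided by the count in vehicle wells, and each value is the median of duplicate plates.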

HCC-366 = tested on: HCC-366
How it was run: as §1

NCI-H1993 = tested on: NCI-H1993
How it was run: as §1

NCI-H2170 = tested on: NCI-H2170
How it was run: as §1

NCI-H522 = tested on: NCI-H522
How it was run: as §1

HARA = tested on: HARA
How it was run: as §1

NCI-H1355 = tested on: NCI-H1355
How it was run: as §1

LOU-NH91 = tested on: LOU-NH91
How it was run: as §1

NCI-H661 = tested on: NCI-H661
How it was run: as §1

NCI-H2087 = tested on: NCI-H2087
How it was run: as §1

NCI-H1395 = tested on: NCI-H1395
How it was run: as §1

NCI-H2009 = tested on: NCI-H2009
How it was run: as §1

SK-MES-1 = tested on: SK-MES-1
How it was run: as §1

BEN = tested on: BEN
How it was run: as §1

EKVX = tested on: EKVX
How it was run: as §1

NCI-H1734 = tested on: NCI-H1734
How it was run: as §1

NCI-H1437 = tested on: NCI-H1437
How it was run: as §1

HCC-827 = tested on: HCC-827
How it was run: as §1

NCI-H2342 = tested on: NCI-H2342
How it was run: as §1

NCI-H647 = tested on: NCI-H647
How it was run: as §1

SK-LU-1 = tested on: SK-LU-1
How it was run: as §1

NCI-H2405 = tested on: NCI-H2405
How it was run: as §1

`CCN(CC)CCCCNc1ncc2cc(-c3cc(OC)cc(OC)c3)c(NC(=O)NC(C)(C)C)nc2n1` + Nc1ncn([C@H]2C[C@H](O)[C@@H](CO)O2)c(=O)n1 [Decitabine] (partner 2 µM) gave a relative viability (NCI-H1792; first compound 0.01 µM) of 0.522, a relative viability (NCI-H1792; first compound 0.03162 µM) of 0.552 and a relative viability (NCI-H1792; first compound 0.1 µM) of 0.536. For the same compound, the relative viability (NCI-H1792; first compound 0.3162 µM) was 0.489, the relative viability (NCI-H1792; first compound 1 µM) was 0.479 and the relative viability (HCC-366; first compound 0.01 µM) was 0.316. For the same compound, the relative viability (HCC-366; first compound 0.03162 µM) was 0.378, the relative viability (HCC-366; first compound 0.1 µM) was 0.368 and the relative viability (HCC-366; first compound 0.3162 µM) was 0.41. For the same compound, the relative viability (HCC-366; first compound 1 µM) was 0.319, the relative viability (NCI-H1993; first compound 0.01 µM) was 0.671 and the relative viability (NCI-H1993; first compound 0.03162 µM) was 0.584. For the same compound, the relative viability (NCI-H1993; first compound 0.1 µM) was 0.508, the relative viability (NCI-H1993; first compound 0.3162 µM) was 0.757 and the relative viability (NCI-H1993; first compound 1 µM) was 0.589. For the same compound, the relative viability (NCI-H2170; first compound 0.01 µM) was 0.474, the relative viability (NCI-H2170; first compound 0.03162 µM) was 0.427 and the relative viability (NCI-H2170; first compound 0.1 µM) was 0.436. For the same compound, the relative viability (NCI-H2170; first compound 0.3162 µM) was 0.47, the relative viability (NCI-H2170; first compound 1 µM) was 0.497 and the relative viability (NCI-H522; first compound 0.01 µM) was 0.625. The relative viability (NCI-H522; first compound 0.03162 µM) was 0.573, the relative viability (NCI-H522; first compound 0.1 µM) was 0.748 and the relative viability (NCI-H522; first compound 0.3162 µM) was 0.651. It also gave a relative viability (NCI-H522; first compound 1 µM) of 0.548, a relative viability (HARA; first compound 0.01 µM) of 0.625 and a relative viability (HARA; first compound 0.03162 µM) of 0.557. It also gave a relative viability (HARA; first compound 0.1 µM) of 0.636, a relative viability (HARA; first compound 0.3162 µM) of 0.649 and a relative viability (HARA; first compound 1 µM) of 0.317. It also gave a relative viability (NCI-H1355; first compound 0.01 µM) of 0.364, a relative viability (NCI-H1355; first compound 0.03162 µM) of 0.368 and a relative viability (NCI-H1355; first compound 0.1 µM) of 0.36. The relative viability (NCI-H1355; first compound 0.3162 µM) was 0.396, the relative viability (NCI-H1355; first compound 1 µM) was 0.339 and the relative viability (LOU-NH91; first compound 0.01 µM) was 0.799. It also gave a relative viability (LOU-NH91; first compound 0.03162 µM) of 0.783, a relative viability (LOU-NH91; first compound 0.1 µM) of 0.875 and a relative viability (LOU-NH91; first compound 0.3162 µM) of 0.801. For the same compound, the relative viability (LOU-NH91; first compound 1 µM) was 0.804, the relative viability (NCI-H661; first compound 0.01 µM) was 0.534 and the relative viability (NCI-H661; first compound 0.03162 µM) was 0.529. The relative viability (NCI-H661; first compound 0.1 µM) was 0.572, the relative viability (NCI-H661; first compound 0.3162 µM) was 0.573 and the relative viability (NCI-H661; first compound 1 µM) was 0.455. For the same compound, the relative viability (NCI-H2087; first compound 0.01 µM) was 0.314, the relative viability (NCI-H2087; first compound 0.03162 µM) was 0.29 and the relative viability (NCI-H2087; first compound 0.1 µM) was 0.302. It also gave a relative viability (NCI-H2087; first compound 0.3162 µM) of 0.284, a relative viability (NCI-H2087; first compound 1 µM) of 0.317 and a relative viability (NCI-H1395; first compound 0.01 µM) of 0.8. For the same compound, the relative viability (NCI-H1395; first compound 0.03162 µM) was 0.685, the relative viability (NCI-H1395; first compound 0.1 µM) was 0.743 and the relative viability (NCI-H1395; first compound 0.3162 µM) was 0.735. The relative viability (NCI-H1395; first compound 1 µM) was 0.598, the relative viability (NCI-H2009; first compound 0.01 µM) was 0.401 and the relative viability (NCI-H2009; first compound 0.03162 µM) was 0.39. For the same compound, the relative viability (NCI-H2009; first compound 0.1 µM) was 0.35, the relative viability (NCI-H2009; first compound 0.3162 µM) was 0.387 and the relative viability (NCI-H2009; first compound 1 µM) was 0.365. The relative viability (SK-MES-1; first compound 0.01 µM) was 0.435, the relative viability (SK-MES-1; first compound 0.03162 µM) was 0.425 and the relative viability (SK-MES-1; first compound 0.1 µM) was 0.366. It also gave a relative viability (SK-MES-1; first compound 0.3162 µM) of 0.318, a relative viability (SK-MES-1; first compound 1 µM) of 0.356 and a relative viability (BEN; first compound 0.01 µM) of 0.691. The relative viability (BEN; first compound 0.03162 µM) was 0.728, the relative viability (BEN; first compound 0.1 µM) was 0.808 and the relative viability (BEN; first compound 0.3162 µM) was 0.797. For the same compound, the relative viability (BEN; first compound 1 µM) was 0.572, the relative viability (EKVX; first compound 0.03162 µM) was 0.323 and the relative viability (EKVX; first compound 0.1 µM) was 0.329. For the same compound, the relative viability (EKVX; first compound 0.3162 µM) was 0.314, the relative viability (EKVX; first compound 1 µM) was 0.295 and the relative viability (NCI-H1734; first compound 0.01 µM) was 0.485. The relative viability (NCI-H1734; first compound 0.03162 µM) was 0.372, the relative viability (NCI-H1734; first compound 0.1 µM) was 0.534 and the relative viability (NCI-H1734; first compound 0.3162 µM) was 0.473. For the same compound, the relative viability (NCI-H1734; first compound 1 µM) was 0.475, the relative viability (NCI-H1437; first compound 0.01 µM) was 0.599 and the relative viability (NCI-H1437; first compound 0.03162 µM) was 0.541. For the same compound, the relative viability (NCI-H1437; first compound 0.1 µM) was 0.592, the relative viability (NCI-H1437; first compound 0.3162 µM) was 0.58 and the relative viability (NCI-H1437; first compound 1 µM) was 0.578. It also gave a relative viability (HCC-827; first compound 0.01 µM) of 0.311, a relative viability (HCC-827; first compound 0.03162 µM) of 0.369 and a relative viability (HCC-827; first compound 0.1 µM) of 0.346. It also gave a relative viability (HCC-827; first compound 0.3162 µM) of 0.376, a relative viability (HCC-827; first compound 1 µM) of 0.284 and a relative viability (NCI-H2342; first compound 0.01 µM) of 0.692. For the same compound, the relative viability (NCI-H2342; first compound 0.03162 µM) was 0.668, the relative viability (NCI-H2342; first compound 0.1 µM) was 0.697 and the relative viability (NCI-H2342; first compound 0.3162 µM) was 0.781. For the same compound, the relative viability (NCI-H2342; first compound 1 µM) was 0.807, the relative viability (NCI-H647; first compound 0.01 µM) was 0.429 and the relative viability (NCI-H647; first compound 0.03162 µM) was 0.383. It also gave a relative viability (NCI-H647; first compound 0.1 µM) of 0.489, a relative viability (NCI-H647; first compound 0.3162 µM) of 0.349 and a relative viability (NCI-H647; first compound 1 µM) of 0.361. It also gave a relative viability (SK-LU-1; first compound 0.01 µM) of 0.628, a relative viability (SK-LU-1; first compound 0.03162 µM) of 0.608 and a relative viability (SK-LU-1; first compound 0.1 µM) of 0.59. For the same compound, the relative viability (SK-LU-1; first compound 0.3162 µM) was 0.705, the relative viability (SK-LU-1; first compound 1 µM) was 0.448 and the relative viability (NCI-H2405; first compound 0.01 µM) was 0.778. It also gave a relative viability (NCI-H2405; first compound 0.03162 µM) of 0.728, a relative viability (NCI-H2405; first compound 0.1 µM) of 0.767 and a relative viability (NCI-H2405; first compound 0.3162 µM) of 0.765. It also gave a relative viability (NCI-H2405; first compound 1 µM) of 0.702.
